# Experimental data reported in the supplement of paper PMC6045584.
# ± gives the standard deviation of the averaged measurements.
# What was measured:
# AZD4547 = compound: COc1cc(CCc2cc(NC(=O)c3ccc(N4CC(C)NC(C)C4)cc3)n[nH]2)cc(OC)c1 [AZD4547]; assay: surviving fraction relative to DMSO-only wells; higher = less growth inhibition; settings: exposure time: 5 days
# In short: (§1)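 For each tumour cell line, log-phase cells were put into 384-well plates at 250–500 cells per well, then after 24 hours exposed continuously for five days to inhibitors at 0.5, 1, 5, 10, 50, 100, 500 and 1000 nM. Viability was assessed by CellTiter-Glo luminescence, with surviving fraction expressed relative to the median of DMSO-only wells. Lines were screened three times and retained only if replicate Pearson r exceeded 0.7 and median Z' exceeded 0.3.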
# ERLOTINIB = compound: C#Cc1cccc(Nc2ncnc3cc(OCCOC)c(OCCOC)cc23)c1 [ERLOTINIB]; assay: as above; settings: exposure time: 5 days
# In short: as §1
Test System,surviving fraction (AZD4547; 0.5 nM),surviving fraction (AZD4547; 1 nM),surviving fraction (AZD4547; 5 nM),surviving fraction (AZD4547; 10 nM),surviving fraction (AZD4547; 50 nM),surviving fraction (AZD4547; 100 nM),surviving fraction (AZD4547; 500 nM),surviving fraction (AZD4547; 1000 nM),surviving fraction (ERLOTINIB; 5 nM),surviving fraction (ERLOTINIB; 10 nM),surviving fraction (ERLOTINIB; 50 nM),surviving fraction (ERLOTINIB; 100 nM),surviving fraction (ERLOTINIB; 500 nM),surviving fraction (ERLOTINIB; 1000 nM)
C33A CERVIX,0.847 ± 0.084,0.948 ± 0.074,0.96 ± 0.027,0.969 ± 0.099,0.915 ± 0.015,0.953 ± 0.1,0.811 ± 0.024,0.75 ± 0.086,1.06 ± 0.03,1.14 ± 0.019,1.06 ± 0.077,1.08 ± 0.029,0.819 ± 0.052,0.655 ± 0.031
CAL72 BONE,1.08 ± 0.022,1.096 ± 0.0035,1.05 ± 0.043,0.791 ± 0.067,0.331 ± 0.028,0.257 ± 0.013,0.19 ± 0.031,0.158 ± 0.026,1.05 ± 0.1,–,–,1.1 ± 0.083,1.06 ± 0.084,1.07 ± 0.058
G292 BONE,0.93 ± 0.062,0.917 ± 0.035,0.801 ± 0.018,0.566 ± 0.0083,0.207 ± 0.0036,0.173 ± 0.011,0.138 ± 0.021,0.107 ± 0.0059,1.03 ± 0.051,1.06 ± 0.018,1.05 ± 0.038,1.07 ± 0.033,0.979 ± 0.019,1.07 ± 0.092
HUO3N1 BONE,1.01 ± 0.05,0.976 ± 0.015,1.05 ± 0.059,0.95 ± 0.072,0.85 ± 0.022,0.816 ± 0.018,0.693 ± 0.04,0.608 ± 0.018,–,1.117 ± 0.0084,1.13 ± 0.025,1.1 ± 0.018,1.02 ± 0.025,1.02 ± 0.038
LNCAP PROSTATE,0.881 ± 0.092,0.995 ± 0.12,0.861 ± 0.036,0.829 ± 0.043,0.821 ± 0.13,0.903 ± 0.037,0.752 ± 0.11,0.857 ± 0.25,0.956 ± 0.032,0.892 ± 0.053,0.947 ± 0.1,1.02 ± 0.054,–,0.967 ± 0.028
SCC003 HEADNECK,1.05 ± 0.091,1.03 ± 0.014,1.13 ± 0.06,1.1 ± 0.083,1.07 ± 0.021,1.1 ± 0.065,1.02 ± 0.088,0.996 ± 0.071,1.13 ± 0.045,1.06 ± 0.11,0.997 ± 0.091,1.04 ± 0.051,0.702 ± 0.024,0.552 ± 0.038
